Results reported in patent publication US6294562A, “Salts of ethyl 3-(2-(4-(4-amino-imino-methyl)phenyl)-4-methyl-2,5-dioxo-imidazolidin-1-yl )acetylamino)-3-phenylpropionate” (Hoechst Aktiengesellschaft, priority 1996, dated 2001).

Experiments:
[1] = tested on: ADP-induced ex vivo platelet aggregation; test: Ex vivo platelet aggregation inhibition in dogs, ADP-induced; parameters: species or system dog; conditions: for Inhibition of aggregation: ADP
Procedure: (§1) Dogs of either sex (mixed breed of Labrador/Harrier, body weight 21-28 kg) were fasted overnight. The test compounds were administered orally in gelatine capsules or intravenously. Before administration of the test compounds and several times during 24 hours thereafter, 20 ml of blood were withdrawn from the cephalic vein into acid citrate dextrose (9+1volumes). Platelet rich plasma (PRP) was obtained by centrifugation. Platelet aggregation was measured in PRP after addition of either ADP (3-30 μmol/l) or collagen (0.3-10 μg/ml) plus epinephrine (10 μM) at 37° C. in an aggregometer (BioData). Percent of maximal aggregation before and after drug administration was compared. The percent inhibition of aggregation at the lowest concentration of the agonist which induced irreversible maximal aggregation is given. In addition, the cutaneous bleeding time was measured at the shaved inner forearm using the Simplate® 1 device at the times of blood collection. Percent prolongation of bleeding time after drug administration as compared to the predrug value is calculated.
(§2) When ethyl (S)-3-(2-( (S)-4-(4-(amino-imino-methyl) phenyl)-4-methyl-2,5-dioxoimidazolidin-1-yl)acetylamino)-3-phenylpropionate hydrogen maleate was examined the following results were obtained. Given is the percent inhibition of platelet aggregation 1 h, 4 h, 8 h and 24 h after administration of the test substance. The dose is given in mg per kg body weight. n is the number of dogs tested.

[2] = Hemodynamic parameters in the coronary cyclic flow variation model in dogs; type: in vivo, dog; conditions: all hemodynamic parameters, intravenous or intraduodenal
From the text: Dogs of either sex (20-35 kg) were anesthetized (Ketamine plus sodium pentobarbital infusion), ventilated and instrumented for the measurement of hemodynamic parameters (peripheral and left ventricular blood pressure, myocardial contractility, heart rate), and ECG. Blood gases and hematocrit were kept constant by infusion of electrolytes. After a left thoracotomy, the heart was exposed and the left circumflex coronary artery (LCX) was instrumented with an electromagnetic flow probe to measure mean coronary blood flow. Distal to the flow probe, the LCX was shortly squeezed with forceps in order to damage the endothelium, and a small concentrically constricting plastic cylinder was placed onto the damaged site (between 1.0 and 1.7 mm inner diameter, depending on the size of the LCX, and 4 mm length). The constrictor abolished the reactive hyperemic response to a 10 second occlusion of the LCX and initiated the appearance of flow cycles (approx. 10 per hour) resulting from recurrent formation of platelet rich thrombi at the stenosed site. […] Cyclic flow variations were further monitored for at least 2 to 5 hours. Percent inhibition of coronary thrombotic cyclic flow variations was calculated by comparison of the mean number of cyclic flow variations per hour before and after administration of the compound in 5 to 8 animals. […]

[3] = tested on: collagen induced ex vivo platelet aggregation; test: Ex vivo platelet aggregation inhibition in dogs, collagen induced; parameters: species or system dog; conditions: collagen plus epinephrine
Procedure: as §1, §2

[4] = Determination of water vapor sorption (automatic two-limbed microbalance, 25° C.); type: physicochemical
Procedure: The water uptake of a substance was determined using an automatic two-limbed microbalance which is operated in vacuo or in an atmosphere which has a defined composition or a defined pressure. The dry sample is located on one side of the balance and a taring weight is located on the other side. A water vapor atmosphere, whose pressure was increased stepwise, was generated in the weighing space. The increase in weight of the sample as a function of the water vapor pressure was recorded. The measurement was carried out at a constant temperature of 25° C.
The weighing space was first of all evacuated to constant weight and the starting weight of the sample was determined. A defined quantity of water vapor was then passed into the evacuated weighing space through an inlet valve. In the experiment which is reproduced below, the water vapor pressure which was set in this first step corresponds, at the measuring temperature of 25° C., to a relative atmospheric humidity of 4.7%. When constant weight was once again reached after passing in the water vapor, i.e. when the sample was in equilibrium with the water vapor atmosphere, the increase in weight of the sample was recorded. After that, the water vapor pressure was increased in several steps by passing in further water vapor (with each water vapor pressure corresponding to a defined relative atmospheric humidity at the measuring temperature of 25° C.). In each step, the increase in weight of the sample was recorded after constant weight had been reached. When ethyl (S)-3-(2-((S)-4-(4-(amino-imino-methyl)phenyl)-4-methyl-2,5-dioxo-imidazolidin-1-yl)-acetylamino)-3-phenylpropionate hydrogen maleate was examined, the following weight increases, based on the starting weight of the sample, were observed.

[5] = tested on: coronary cyclic flow variations (recurrent formation of platelet rich thrombi); test: Coronary cyclic flow variations in dogs (model of unstable angina); type: in vivo, dog
From the text: Dogs of either sex (20-35 kg) were anesthetized (Ketamine plus sodium pentobarbital infusion), ventilated and instrumented for the measurement of hemodynamic parameters (peripheral and left ventricular blood pressure, myocardial contractility, heart rate), and ECG. Blood gases and hematocrit were kept constant by infusion of electrolytes. After a left thoracotomy, the heart was exposed and the left circumflex coronary artery (LCX) was instrumented with an electromagnetic flow probe to measure mean coronary blood flow. Distal to the flow probe, the LCX was shortly squeezed with forceps in order to damage the endothelium, and a small concentrically constricting plastic cylinder was placed onto the damaged site (between 1.0 and 1.7 mm inner diameter, depending on the size of the LCX, and 4 mm length). The constrictor abolished the reactive hyperemic response to a 10 second occlusion of the LCX and initiated the appearance of flow cycles (approx. 10 per hour) resulting from recurrent formation of platelet rich thrombi at the stenosed site. After 60 min of regular cyclic flow variations, the test compounds were administered by intravenous or intraduodenal bolus application. Cyclic flow variations were further monitored for at least 2 to 5 hours. Percent inhibition of coronary thrombotic cyclic flow variations was calculated by comparison of the mean number of cyclic flow variations per hour before and after administration of the compound in 5 to 8 animals. In control animals, the number of cyclic flow variations per hour remained constant for several hours. (References: Folts, J. D. et al. (1976), Circulation 54: 365-370; Just, M. et al. (1989), J. Cardiovasc. Pharmacol. 14 (suppl. 11): S 129-136)
When ethyl (S)-3-(2-((S)-4-(4-(amino-imino-methyl)phenyl)-4methyl-2,5-dioxoimidazolidin-1-yl)acetylamino)-3-phenylpropionate hydrogen maleate was examined the following results were obtained. Given is the percent reduction of the number of stenosis induced coronary cyclic flow variations (CFV's) per hour in the first, the second and the third hour after administration of the test compound as compared to the predrug period. The dose is given in mg per kg of body weight.

[6] = Cutaneous bleeding time in dogs (Simplate 1 device); type: in vivo, dog; conditions: for maximal prolongation of bleeding time: p<0.05
Procedure: as §1

[7] = Solid state form and hygroscopicity, as stated in the description; type: physicochemical; conditions: hydrochloride salts
[8] = 0.5 mg/kg intravenously, n=6, after 1 h
[9] = 0.5 mg/kg intravenously, n=6, after 4 h
[10] = 0.5 mg/kg intravenously, n=6, after 8 h
[11] = 0.5 mg/kg intravenously, n=6, after 24 h
[12] = 0.5 mg/kg orally, n=6, after 1 h
[13] = 0.5 mg/kg orally, n=6, after 4 h
[14] = 0.5 mg/kg orally, n=6, after 8 h
[15] = 0.5 mg/kg orally, n=6, after 24 h
[16] = 1 mg/kg orally, n=6, after 24 h
[17] = 2 mg/kg orally, n=8, after 24 h

Work on `CCOC(=O)C[C@H](NC(=O)CN1C(=O)N[C@@](C)(c2ccc(C(=N)N)cc2)C1=O)c1ccccc1.O=C(O)/C=C\C(=O)O` [Ethyl (S)-3-(2-((S)-4-(4-(amino-imino-methyl)phenyl)-4-methyl-2,5-dioxo-imidazolidin-1-yl)acetylamino)-3-phenylpropionate hydrogen maleate] yielded an Inhibition of aggregation [1, 8] of 93%, an Inhibition of aggregation [1, 9] of 88% and an Inhibition of aggregation [1, 10] of 59%. The Inhibition of aggregation [1, 11] was 16%, the Inhibition of aggregation [1, 12] was 46% and the Inhibition of aggregation [1, 13] was 83%. For the same molecule, the Inhibition of aggregation [1, 14] was 33%, the Inhibition of aggregation [1, 15] was 18% and the Inhibition of aggregation ([1]; 1 mg/kg orally, n=6, after 1 h) was 76%. It also gave an Inhibition of aggregation ([1]; 1 mg/kg orally, n=6, after 4 h) of 97%, an Inhibition of aggregation ([1]; 1 mg/kg orally, n=6, after 8 h) of 86% and an Inhibition of aggregation [1, 16] of 70%. It also gave an Inhibition of aggregation ([1]; 2 mg/kg orally, n=8, after 1 h) of 64%, an Inhibition of aggregation ([1]; 2 mg/kg orally, n=8, after 4 h) of 86% and an Inhibition of aggregation ([1]; 2 mg/kg orally, n=8, after 8 h) of 78%. The Inhibition of aggregation [1, 17] was 49%, the “efficacy as inhibitor of platelet aggregation” value ([1]; in words, ADP- and collagen-induced) was “pronounced efficacy” and the “hemodynamic parameters recorded during the test” value [2] was “not significantly changed”. It also gave an Inhibition of aggregation [3, 8] of 27%, an Inhibition of aggregation [3, 9] of 26% and an Inhibition of aggregation [3, 10] of 18%. For the same molecule, the Inhibition of aggregation [3, 11] was 0%, the Inhibition of aggregation [3, 12] was 8% and the Inhibition of aggregation [3, 13] was 19%. The Inhibition of aggregation [3, 14] was 5%, the Inhibition of aggregation [3, 15] was 0% and the Inhibition of aggregation ([3]; 1 mg/kg orally, n=6, after 1 h) was 36%. For the same molecule, the Inhibition of aggregation ([3]; 1 mg/kg orally, n=6, after 4 h) was 67%, the Inhibition of aggregation ([3]; 1 mg/kg orally, n=6, after 8 h) was 50% and the Inhibition of aggregation [3, 16] was 11%. For the same molecule, the Inhibition of aggregation ([3]; 2 mg/kg orally, n=8, after 1 h) was 28%, the Inhibition of aggregation ([3]; 2 mg/kg orally, n=8, after 4 h) was 65% and the Inhibition of aggregation ([3]; 2 mg/kg orally, n=8, after 8 h) was 60%. The Inhibition of aggregation [3, 17] was 20%, the hygroscopicity ([4]; 25° C.) was “not hygroscopic” and the increase in weight ([4]; relative atmospheric humidity of approx. 80%) was “approx. 0.5%”. The “Increase in weight of the sample” value ([4]; relative humidity 4.7%, 25° C.) was 0.06%, the “Increase in weight of the sample” value ([4]; relative humidity 18.5%, 25° C.) was 0.11% and the “Increase in weight of the sample” value ([4]; relative humidity 32.8%, 25° C.) was 0.16%. For the same molecule, the “Increase in weight of the sample” value ([4]; relative humidity 49.6%, 25° C.) was 0.23%, the “Increase in weight of the sample” value ([4]; relative humidity 64.7%, 25° C.) was 0.33% and the “Increase in weight of the sample” value ([4]; relative humidity 75.5%, 25° C.) was 0.43%. The “Increase in weight of the sample” value ([4]; relative humidity 82.1%, 25° C.) was 0.54%, the “Reduction of CFV's” value ([5]; 0.1 mg/kg intraduodenally, first hour) was 39% and the “Reduction of CFV's” value ([5]; 0.1 mg/kg intraduodenally, second hour) was 62%. The “Reduction of CFV's” value ([5]; 0.1 mg/kg intraduodenally, third hour) was 74%, the “Reduction of CFV's” value ([5]; 0.1 mg/kg intravenously, first hour) was 52% and the “Reduction of CFV's” value ([5]; 0.1 mg/kg intravenously, second hour) was 81%. For the same molecule, the “Reduction of CFV's” value ([5]; 0.1 mg/kg intravenously, third hour) was 89%, the “Reduction of CFV's” value ([5]; 0.2 mg/kg intravenously, first hour) was 75% and the “Reduction of CFV's” value ([5]; 0.2 mg/kg intravenously, second hour) was 96%. For the same molecule, the “Reduction of CFV's” value ([5]; 0.2 mg/kg intravenously, third hour) was 99%, the “Reduction of CFV's” value ([5]; 0.3 mg/kg intraduodenally, first hour) was 23% and the “Reduction of CFV's” value ([5]; 0.3 mg/kg intraduodenally, second hour) was 66%. The “Reduction of CFV's” value ([5]; 0.3 mg/kg intraduodenally, third hour) was 78%, the antithrombotic activity ([5]; dog, in vivo) was “powerful antithrombotic activity” and the “maximal prolongation of bleeding time” value ([6]; 0.5 mg/kg intravenous, at 4 hours) was 68%. The “maximal prolongation of bleeding time” value ([6]; 2 mg/kg oral, at 2 hours) was 122% and the bleeding times ([6]; at the lower oral doses (0.5 and 1 mg/kg)) was “not significantly changed”.

In the case of `CCOC(=O)C[C@@H](NC(=O)CN1C(=O)N[C@](C)(c2ccc(C(=N)N)cc2)C1=O)c1ccccc1` [ethyl (R)-3-(2-((R)-4-(4-(amino-imino-methyl)phenyl)-4-methyl-2,5-dioxo-imidazolidin-1-yl)acetylamino)-3-phenylpropionate], the solid state form [7] is reported as “amorphous and cannot be obtained in the crystalline state”.

For `CCOC(=O)C[C@@H](NC(=O)CN1C(=O)N[C@@](C)(c2ccc(C(=N)N)cc2)C1=O)c1ccccc1` [ethyl (R)-3-(2-((S)-4-(4-(amino-imino-methyl)phenyl)-4-methyl-2,5-dioxoimidazolidin-1-yl)acetylamino)-3-phenylpropionate], the solid state form [7] was “amorphous and cannot be obtained in the crystalline state”.

In the case of `CCOC(=O)C[C@H](NC(=O)CN1C(=O)N[C@](C)(c2ccc(C(=N)N)cc2)C1=O)c1ccccc1` [ethyl (S)-3-(2-((R)-4-(4-(amino-imino-methyl)phenyl)-4-methyl-2,5-dioxoimidazolidin-1-yl)-acetylamino)-3-phenylpropionate], the solid state form [7] is reported as “amorphous and cannot be obtained in the crystalline state”.

With `CCOC(=O)C[C@H](NC(=O)CN1C(=O)N[C@@](C)(c2ccc(C(=N)N)cc2)C1=O)c1ccccc1` [ethyl (S)-3-(2-((S)-4-(4-(amino-imino-methyl)phenyl)-4-methyl-2,5-dioxoimidazolidin-1-yl)acetylamino)-3-phenylpropionate] the solid state form [7] was “amorphous and cannot be obtained in the crystalline state”.
